Broadly, the IC50 is the concentration needed to halve the response being measured. A high value points to weaker potency in that assay.

Data set [1] deals with T1, BRD2 (BD1) (Homo sapiens, UniProt P25440).
T1 construct: a bromodomain of BRD2 (BD1) and BRD3 (BD1), one of the BRD protein family
The data set is described as follows: Binding inhibitory effect on BRD2 protein (AlphaScreen, GST-BRD2 (BD1) / biotinylated acetyl-histone H4 peptide). Particulars: 100 nM GST-BRD2 (BD1), 100 nM biotinylated acetyl-histone H4 (Lys5, 8, 12, 16) peptide. In general terms: Bead proximity is the source of the signal in Alpha formats.

Data set [2] deals with T2, BRD3 (BD1) (Homo sapiens, UniProt Q15059).
T2 construct: a bromodomain of BRD2 (BD1) and BRD3 (BD1), one of the BRD protein family; GST
T2 sequence (Q15059 34-140 limits assumed, species assumed): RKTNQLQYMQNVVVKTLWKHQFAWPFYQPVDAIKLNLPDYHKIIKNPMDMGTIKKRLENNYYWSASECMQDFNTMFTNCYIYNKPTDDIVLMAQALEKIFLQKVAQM
The data set is described as follows: Binding inhibitory effect on BRD3 protein (same manner as Experimental Example 1-1).

The test system of data set [3] is retinal degeneration mouse model. The data set is described as follows: Electroretinogram (ERG) in blue LED-induced retinal degeneration mouse model. The data set is classed as in vivo, albino BALB/c mice. Particulars: compound 24 nM, Com. Ex. 4 25 mg/kg. The protocol: In order to fabricate a retinal degeneration model, 7-week-old male albino BALB/c mice were used. Three mice were randomly assigned to each test group, and light and dark were maintained at 12-hour intervals. Each mouse was dark-adapted for 24 hours and then the pupils were dilated with 0.5% tropicamide and 0.5% phenylephrine hydrochloride eye drops (Santen, Osaka, Japan) 30 minutes before blue LED exposure. Unanesthetized mice were exposed to 2,000 lux of a blue LED (460 ± 10 nm) for 2 hours in a cage with reflective interiors. The light intensity was measured using an LED photometer (model TM-201L, TENMARS Electronics, Taipei, Taiwan). After exposure to blue LED, the mice were kept in the dark for 24 hours and then resumed on a 12-hour light/dark cycle for 3 days.
In a test substance control test, mice with retinal degeneration were divided into a normal saline-administered group and a compound-administered group (24 nM) of the present disclosure, and 3 mice were randomly assigned to each test group. A positive control test was divided into a normal saline-administered group and an Eyela (25 mg/kg mouse body weight)-administered group (Comparative Example 4), and three mice were randomly assigned to each test group.
All test groups were administered as a single dose by intravitreal injection 1 hour after LED exposure.
That is, mice were stored in a completely dark room for 16 hours before ERG recordings. All animals were anesthetized intraperitoneally with zolazepam (20 mg/kg) and xylazine (7.5 mg/kg). The cornea was coated with hydroxypropyl methylcellulose gel and covered with a gold ring contact electrode. Ground and reference electrodes were disposed subcutaneously on the tail and ears, respectively. Stimuli were short white flashes delivered through a Ganzfeld stimulator (UTAS-3000; LKC Technologies, Gaithersburg, MD, USA). The signal was amplified and filtered through a digital band-pass filter in the range of 5 to 300 Hz to generate a and b waves. Scotopic ERG, and rod-mediated responses were obtained at increasing light intensities of 0.025 and 3.96 cd/s • m^2. Photopic, cone-mediated responses were obtained after 5-min light adaptation to background light intensity. The recordings were obtained at the light intensity of 6.28 cd/s • m^2. Each recording was the average of three responses obtained within a 15-second stimulation interval. A-wave amplitude was measured from a baseline to the maximum a-wave peak, and b-wave amplitude was measured from the maximum a-wave peak to the maximum b-wave peak.

Where [4] appears, read: single intravitreal injection 1 hour after LED exposure.

T1 sequence (P25440 74-180 limits assumed, species assumed): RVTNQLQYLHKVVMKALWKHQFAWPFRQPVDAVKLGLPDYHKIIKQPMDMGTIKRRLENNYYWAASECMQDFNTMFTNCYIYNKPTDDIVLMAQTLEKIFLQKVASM

As for `CCC1(C(=O)NC)CCCN(C(=O)c2ccc(-c3ccccc3-c3cccc4c3CN(C)C4=O)o2)C1` (stereo not shown) [Compound 36], the values for the half-maximal inhibitory concentration (IC50) in data set [1] and in data set [2] were 14.5 µM and 4.26 µM, respectively.
The matching figures for `CNC(=O)C1(C)CN(C(=O)c2ccc(-c3ccccc3-c3cccc4c3CN(C)C4=O)o2)CCC1O` (stereo not shown) [Compound 34]: 15.7 µM and 4.68 µM.
`CC(C)NCc1ccc(-c2ccccc2-c2cccc3c2CN(C)C3=O)o1` [Compound 8, 2-methyl-4-(2-(5-((isopropylamino)methyl)furan-2-yl)phenyl)isoindoline-1-one] displayed an IC50 in data set [2] of 2.2 µM. This counts as single-digit micromolar.
As for `CNC(=O)C1(C)CN(Cc2ccc(-c3ccccc3-c3cccc4c3CN(C)C4=O)o2)CCC1O` (stereo not shown) [Compound 25], the IC50 stood at 7.68 µM in data set [1] and 1.29 µM in data set [2]. The “Wavelength enhanced multiple compared to normal saline-treated group, Average value” in data set [3] (average of a-wave and b-wave, intravitreal) was 1.27. Besides, in data set [3] (setting [4]), the “Wavelength enhanced multiple compared to normal saline-treated group, a-wave” value was 1.52. In data set [3] (setting [4]), the “Wavelength enhanced multiple compared to normal saline-treated group, b-wave” value is recorded as 1.01.
For the compound `CN1Cc2c(cccc2-c2ccccc2-c2ccc(CN3CCC(Cc4ccc(F)cc4)(C(=O)NCc4ccccc4)CC3)o2)C1=O` [Compound 20], the results for the IC50 in data set [1] and in data set [2] were 16.7 µM and 3.72 µM, respectively.
The matching figures for `CN(C)CCNCc1ccc(-c2ccccc2-c2cccc3c2CN(C)C3=O)o1` [Compound 5, 2-methyl-4-(2-(5-((dimethylaminoethylamino)methyl)furan-2-yl)phenyl)isoindoline-1-one]: 12.4 µM and 2.36 µM.
The matching figures for `CN1Cc2c(cccc2-c2ccccc2-c2ccc(CNCc3ccccc3)o2)C1=O` [Compound 17, 2-methyl-4-(2-(5-((benzylamino)methyl)furan-2-yl)phenyl)isoindoline-1-one]: 14 µM and 3.61 µM.
The like results for `CCNCc1ccc(-c2ccccc2-c2cccc3c2CN(C)C3=O)o1` [Compound 2, 2-methyl-4-(2-(5-((ethylamino)methyl)furan-2-yl)phenyl)isoindoline-1-one] were, in that order, 16.8 µM and 1.26 µM.
For the compound `CNC(=O)CC1C(=O)NCCN1Cc1ccc(-c2ccccc2-c2cccc3c2CN(C)C3=O)o1` (stereo not shown) [Compound 26], the results for the IC50 in data set [1] and in data set [2] were 13 µM and 1.38 µM, respectively.
The matching figures for `CN1Cc2c(cccc2-c2ccccc2-c2ccc(CNCCS(C)(=O)=O)o2)C1=O` [Compound 9]: 19.7 µM and 3.85 µM.
The like results for `CN1Cc2c(cccc2-c2ccccc2-c2ccc(CN3CCC(Cc4ccncc4)(C(N)=O)CC3)o2)C1=O` [Compound 31, 2-methyl-4-(2-(5-(((4-pyridinylmethyl-4'-carboxamidyl)piperidine)methyl)furan-2-yl)phenyl)isoindoline-1-one] were, in that order, 15 µM and 2.78 µM.
The matching figures for `CN1Cc2c(cccc2-c2ccccc2-c2ccc(CN3CCCCC3)o2)C1=O` [Compound 12, 2-methyl-4-(2-(5-(piperidine-1-ylmethyl)furan-2-yl)phenyl)isoindoline-1-one]: 14.5 µM and 2.99 µM.
Take `CN1Cc2c(cccc2-c2ccccc2-c2ccc(CN3CCC4(CC3)C(=O)N(C)CC4c3ccc(F)cc3)o2)C1=O` (stereo not shown) [Compound 23, 2-methyl-4-(2-(5-(((4-(4-fluorophenyl)-2-methyl)-2λ^2,8-diazaspiro[4,5]decan-1-one)methyl)furan-2-yl)phenyl)isoindoline-1-one]: the IC50 in data set [1] was 15.3 µM; in data set [2], 1.3 µM.
The like results for `COCNCc1ccc(-c2ccccc2-c2cccc3c2CN(C)C3=O)o1` [Compound 4, 2-methyl-4-(2-(5-((methoxymethylamino)methyl)furan-2-yl)phenyl)isoindoline-1-one] were, in that order, 17.4 µM and 4.43 µM.
As for `CN1Cc2c(cccc2-c2ccccc2-c2ccc(CN3CCN(S(C)(=O)=O)CC3)o2)C1=O` [Compound 11], the concentration for half-maximal inhibition (IC50) in data set [1] came out at 16.6 µM; in data set [2], 3.71 µM.
The like results for `CNCc1ccc(-c2ccccc2-c2cccc3c2CN(C)C3=O)o1` [Compound 1, 2-methyl-4-(2-(5-((methylamino)methyl)furan-2-yl)phenyl)isoindoline-1-one] were, in that order, 16.9 µM and 1.39 µM.
The matching figures for `CN1Cc2c(cccc2-c2ccccc2-c2ccc(CN3CCC(N(C)C)CC3)o2)C1=O` [Compound 15, 2-methyl-4-(2-(5-((4-(dimethylamino)piperidine-1-yl)methyl)furan-2-yl)phenyl)isoindoline-1-one]: 15.8 µM and 2.56 µM.
In the case of `CN1CCN(CCNCc2ccc(-c3ccccc3-c3cccc4c3CN(C)C4=O)o2)CC1` [Compound 10, 2-methyl-4-(2-(5-(((2-(4-methylpiperazine-1-yl)ethyl)amino)methyl)furan-2-yl)phenyl)isoindoline-1-one], the IC50 in data set [1] came out at 11.4 µM; in data set [2] it was 3.89 µM.
The matching figures for `CNC(=O)c1ccc(-c2ccccc2-c2cccc3c2CN(C)C3=O)o1` [Compound 33, 2-methyl-4-(2-(5-((methylamino)carbonyl)furan-2-yl)phenyl)isoindoline-1-one]: 11.1 µM and 2.39 µM.
The matching figures for `CN1Cc2c(cccc2-c2ccccc2-c2ccc(CN3CCC4(CC3)C(=O)NCC4c3ccc(F)cc3)o2)C1=O` (stereo not shown) [Compound 22, 2-methyl-4-(2-(5-((4-(4-fluorophenyl)-2λ^2,8-diazaspiro[4,5]decan-1-one)methyl)furan-2-yl)phenyl)isoindoline-1-one]: 13.7 µM and 1.19 µM.
The like results for `CN1Cc2c(cccc2-c2ccccc2-c2ccc(CN3CCN(C(C)(C)C(N)=O)CC3)o2)C1=O` [Compound 16] were, in that order, 15.8 µM and 1.75 µM.
With `CCCNCc1ccc(-c2ccccc2-c2cccc3c2CN(C)C3=O)o1` [Compound 3, 2-methyl-4-(2-(5-((propylamino)methyl)furan-2-yl)phenyl)isoindoline-1-one], the results for the IC50 in data set [1] and in data set [2] were 14.1 µM and 4.51 µM, respectively.
The like results for `CNC(=O)C1(C)CN(Cc2oc(-c3ccccc3-c3cccc4c3CN(C)C4=O)cc2C)CCC1O` (stereo not shown) [Compound 41] were, in that order, 15.5 µM and 2.14 µM.
The matching figures for `CCC1(C(=O)NC)CCCN(Cc2ccc(-c3ccccc3-c3cccc4c3CN(C)C4=O)o2)C1` (stereo not shown) [Compound 24]: 15.2 µM and 1.67 µM.
The matching figures for `CNC(=O)C1(Cc2ccc(F)cc2)CCN(C(=O)c2ccc(-c3ccccc3-c3cccc4c3CN(C)C4=O)o2)CC1` [Compound 32, 2-methyl-4-(2-(5-(((4-(4-fluorobenzyl)-4'-carboxamidyl)piperidine)carbonyl)furan-2-yl)phenyl)isoindoline-1-one]: 16.8 µM and 3.99 µM.
With `CNCc1oc(-c2ccccc2-c2cccc3c2CN(C)C3=O)cc1C` [Compound 38], the IC50 is 12.5 µM in data set [1] and 1.12 µM in data set [2].
The like results for `CN1Cc2c(cccc2-c2ccccc2-c2ccc(CNC3CCCC3)o2)C1=O` [Compound 7, 2-methyl-4-(2-(5-((cyclopentylamino)methyl)furan-2-yl)phenyl)isoindoline-1-one] were, in that order, 18.2 µM and 4.35 µM.
`CN1Cc2c(cccc2-c2ccccc2-c2ccc(CN3CCN(c4cccc(F)c4)CC3)o2)C1=O` [Compound 14, 2-methyl-4-(2-(5-(((4-(3-fluorophenyl)piperazine-1-yl)methyl))furan-2-yl)phenyl)isoindoline-1-one]: the figures for the IC50 in data set [1] and in data set [2] were 13.3 µM and 2.4 µM, respectively.
The matching figures for `CNC(=O)C1(Cc2ccccc2)CCN(Cc2ccc(-c3ccccc3-c3cccc4c3CN(C)C4=O)o2)CC1` [Compound 19]: 13.9 µM and 1.4 µM.
The matching figures for `C#CCN(C)Cc1ccc(-c2ccccc2-c2cccc3c2CN(C)C3=O)o1` [Compound 6]: 15.8 µM and 2.61 µM.
The matching figures for `CN1Cc2c(cccc2-c2ccccc2-c2ccc(CN3CCC(Cc4ccccc4)(C(N)=O)CC3)o2)C1=O` [Compound 29, 2-methyl-4-(2-(5-(((4-benzyl-4'-carboxamidyl)piperidine)methyl)furan-2-yl)phenyl)isoindoline-1-one]: 14.6 µM and 4.86 µM.

Values taken from patent EP4613329A1, “COMPOUND FOR INHIBITING BRD PROTEIN” (Benobio Co., Ltd., priority 2024, dated 2025).
